The source of these data is patent US6767887B1, “Exendin analogues, processes for their preparation and medicaments containing them” (Roche Diagnostics GmbH, priority 1999, dated 2004).

Where a SMILES comes first, the peptide text is derived from it. Where no end group is shown, it is not given here. [ ]: non-standard residue; d: D form. Nle = CCCC[C@H](N)C(=O)O

The subject of one series is clonal B cell line INS-1. The series can be described thus: Increase of cytosolic calcium concentration in INS-1 cells (Fura-2). In kind it is cell-based. Conditions: peptide 10^−8 M, 10 mM glucose. The method, then: Measurement of the Increase of the Cytosolic Calcium Concentration in B Cells of the Endocrine Pancreas (Clonal B Cell Line INS-1)
INS-1 cells are cultured in RPMI 1640 medium containing 10% FCS, 10 mM HEPES buffer (pH 7.4), 2 mM L-glutamine, 100 i.U. penicillin/ml, 100 μg streptomycine/ml, 1 mM pyruvate (sodium salt) and 50 μM 2-mercaptoethanol at 37° C. in an atmosphere of 95% air and 5% CO2. After 6 to 8 days growth on plastic cell culture plates, the subconfluent cells, after rinsing once with PBS (phosphate-buffered saline), are detached from the base by incubating for four minutes at 37° C. with 0.025% trypsin and 0.27 mM EDTA in isoosmotic saline solution
The detached cells are resuspended in Spinner medium (culture medium as above, but containing 5% FCS and 25 mM HEPES) and incubated for two and a half hours in a Spinner bottle with a stirrer bar. Afterwards the medium is removed by centrifugation and the cells are resuspended in Spinner medium. They are then incubated for 30 minutes at 37° C. with 2 μM Fura-2/acetoxymethyl ester under the same conditions as before. The Fura loading of the cells is terminated by washing the cells once Spinner medium (room temperature). Afterwards the cells are resuspended in spinner medium at room temperature (2×10^7 cells/ml). The cells are then removed from this suspension for calcium measurements.
The measurements are carried out at 37° C. in a modified Krebs-Ringer buffer (KRBH) containing 136 mM NaCl, 4.8 mM KCl, 2 mM CaCl2, 1.2 MM MgSO4, 1.2 mM KH2PO4, 5 mM NaNCO3, 10 mM glucose, 250 μM sulfinpyrazone (to inhibit the Fura-2 efflux into the medium) and 25 mM HEPES buffer (adjusted to pH 7.4 with NaOH). The cell concentration is 1-2×10^6/ml. The measurements are carried out in a cuvette stirred with a stirring bar in a spectrofluorimeter at 37° C. with 1.5 ml cell suspension. The excitation wavelength is 340 nm, the emission wavelength is 505 nm. At the end of the measurement 50 μM MnCl2 is added which is followed by 100 μm DTPA (diethylenetriamine pentaacetate) in order to determine the proportion of extracellular fluorescence indicator relative to the measured fluorescence by temporarily quenching the fluorescence of extracellular Fura. After the addition of DTPA the entire Fura is firstly converted into a calcium-saturated and then into a calcium-free state to determine the calibration values Fmax (calcium-saturated) and Fmin (calcium-free) for the respective measurement. For this purpose the cells are lysed by adding 0.1% Triton X-100. The dye is saturated with calcium by contact with the high extracellular calcium concentration. […]
The cytosolic calcium ion concentration is calculated according to the algorithm introduced by R. Tsien and colleagues (Grynkiewicz, G., 1985): […]

In series [1] the target is dipeptidyl peptidase IV (DDP-IV) (Homo sapiens, UniProt P27487).
Experimental: Renal brush border microvilli membranes (BBM) are therefore a suitable source for the relevant ectopeptidases and can be used as an in vitro test for the metabolic stability of synthetic peptides. Alternatively it is possible to use ectopeptidase preparations.
(§1) Microvilli membranes (0.5-1 μg protein) or the respective ectopeptidase preparation (60-300 ng) were incubated with 10 μg peptide (about 3 nmol) in 100 μl HEPES buffer (50 mM, pH 7.4) which contained 50 mM NaCl. The reactions were terminated at predetermined times (duration up to 1 hour) by boiling. Subsequently the samples were centrifuged (10,000×g), diluted with 150 μl 0.1% TFA and analysed by means of reversed phase (RP) HPLC. Each sample was determined in duplicate.
A system with the following components was used for HPLC analysis: A 2248 low pressure pump (Pharmacia-LKB, Freiburg), a WISP 10B autoinjector (Millipore-Waters, Eschborn), a UV detector SP-4 (Gynkotec, Berlin), a low pressure mixing system (Pharmacia-LKB, Freiburg) and a program manager software control (Pharmacia-LKB, Freiburg). […] After injection of 244 μl of the sample solution onto a column equilibrated with the motile solvent A, the incubation products were eluted with a linear gradient of 0% to 80% B in 80 min and detected at 215 nm UV absorption. […]
For series [2], the system named is brush border microvilli membranes (BBM). Conditions: pH 7.4.
Experimental: Renal brush border microvilli membranes (BBM) are therefore a suitable source for the relevant ectopeptidases and can be used as an in vitro test for the metabolic stability of synthetic peptides.
Microvilli membranes of the rat and pig kidney cortex are isolated by means of subcellular fractionation using the differential centrifugation method (Booth and Kenny (1975)). 4 Brush border ectopeptidases are examined fluorimetrically and other marker enzymes are measured colorimetrically in order to assess the degree of purity and the yield of membranes.
as §1
A system with the following components was used for HPLC analysis: A 2248 low pressure pump (Pharmacia-LKB, Freiburg), a WISP 10B autoinjector (Millipore-Waters, Eschborn), a UV detector SP-4 (Gynkotec, Berlin), a low pressure mixing system (Pharmacia-LKB, Freiburg) and a program manager software control (Pharmacia-LKB, Freiburg). […]
For another series, the system named is isolated islet cells. Description: Insulin release from isolated islets. Format: cell-based, mice. The method, then:
The abdomen of anaesthetised (0.3-0.5 ml nembutal/isotonic saline solution 1:4 i.p.) mice is opened by a median incision and two side incisions, the peritoneum is immobilized and cut open at the costal arch along the diaphragm. All organs are inflated and stained red by injection of a neutral red solution into the left ventricle. The pancreas is carefully removed along the stomach and duodenum up to the mesenteries. Until digestion the pancreas is placed in an ice-cooled petri dish in Hank's balanced salt solution (HBBS) and a few drops of neutral red.
Two pancreases are dabbed with cellulose, placed in a tube, 5 ml freshly prepared collagenase solution (collagenase (Cl. histolyticum) 0.74 U/mg, Serva, 2 mg/ml in HBBS/water 1:9, pH 7.4) is added and they are incubated for 18 minutes at 37° C. while shaking. Subsequently a centrifugation is carried out at 1000 rpm for 1 minute. The supernatant is discarded, In a second digestion step 5 ml collagenase solution (1 mg/ml) is incubated for 4 minutes, shaken and undigested tissue is sedimented. The supernatant is decanted and the whole process is repeated four to five times. The supernatant is then centrifuged for 1 minute at 1000 rpm and the collagenase solution is discarded. The remaining pellet is shaken with ice-cold HBBS and sedimented for ca. 10 minutes on ice. This wash process is repeated for a further three times. The faint pink stained islets are picked out from the washed pellets under a stereoscopic magnifying glass and transferred to culture medium (100 ml RPMI 1640 (Gibco), 1 ml glutamine, 1 ml penicillin, 1 ml Cibrobay antibiotic (Bayer), 10 ml foetal calf serum, 2 ml Hepes buffer 1 M). In order to obtain the purest possible culture, the islets are picked two to three times and transferred to fresh culture medium.
The islet cells from the culture medium are distributed in Eppendorff vessels containing […] stimulation buffer (118 mM NaCl, 0.2 mM NaH^2PO^4, 0.565 mM MgCl^2, 1.25 mM CaCl^2, 4.1 mM KCl, 10 mM Hepes, 1% BSA, 3.3 mM glucose; pH 7.4) in a quantity of 10 islets per Eppendorff vessel and placed in an incubator for 1 hour at 37° C. Subsequently the peptides to be tested are added and filled up to […] with stimulation buffer and incubated for one hour at 37° C. The islets are centrifuged at 1000 rpm for 1 minute. The amount of […] is measured in the supernatant using an insulin-RIA (DPC Biermann, Nauheim). Each test substance was determined in quadruplicate.
Some exendin analogues were tested as described above on isolated islet cells for insulin secretory activity.
Insulin Release From Isolated Islets After 1 Hour [mIU/h/10 Islets] in the Presence of 10 mM Glucose: […]

dipeptidyl peptidase IV (DDP-IV), sequence (P27487 whole entry): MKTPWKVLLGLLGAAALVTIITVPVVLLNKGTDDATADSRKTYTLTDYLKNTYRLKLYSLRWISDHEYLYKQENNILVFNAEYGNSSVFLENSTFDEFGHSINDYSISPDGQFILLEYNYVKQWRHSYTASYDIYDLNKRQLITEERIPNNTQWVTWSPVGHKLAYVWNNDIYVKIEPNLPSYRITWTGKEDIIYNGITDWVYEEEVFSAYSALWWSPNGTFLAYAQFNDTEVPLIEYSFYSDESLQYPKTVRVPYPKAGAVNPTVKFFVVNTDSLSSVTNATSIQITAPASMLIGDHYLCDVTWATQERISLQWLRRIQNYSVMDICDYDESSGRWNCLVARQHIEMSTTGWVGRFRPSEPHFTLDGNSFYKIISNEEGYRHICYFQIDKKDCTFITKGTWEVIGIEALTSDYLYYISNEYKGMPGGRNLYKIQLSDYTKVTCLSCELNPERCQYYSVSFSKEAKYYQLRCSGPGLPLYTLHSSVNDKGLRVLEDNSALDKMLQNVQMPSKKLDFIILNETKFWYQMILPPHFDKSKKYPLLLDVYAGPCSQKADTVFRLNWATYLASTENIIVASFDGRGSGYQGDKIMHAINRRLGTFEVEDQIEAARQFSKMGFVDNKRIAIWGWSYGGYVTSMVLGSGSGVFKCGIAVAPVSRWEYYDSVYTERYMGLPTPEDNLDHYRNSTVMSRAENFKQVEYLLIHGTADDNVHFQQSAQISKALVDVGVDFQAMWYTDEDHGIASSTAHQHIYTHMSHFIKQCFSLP

In the case of “10 (HGEGTFTSDLSKQMEEEAVRAFIEWLKAGR) [compound 10]”, the “Δ[Ca^2+]cyt ± SD (n = 4)” value in the series on clonal B cell line INS-1 was found to be 69 ± 30 nM.
As for `CCCC[C@H](NC(=O)[C@H](CCC(N)=O)NC(=O)[C@H](CCCCN)NC(=O)[C@H](CO)NC(=O)[C@H](CC(C)C)NC(=O)[C@H](CC(=O)O)NC(=O)[C@H](CO)NC(=O)[C@@H](NC(=O)[C@H](Cc1ccccc1)NC(=O)[C@@H](NC(=O)CNC(=O)[C@H](CC(=O)O)NC(=O)[C@H](C)NC(=O)[C@@H](N)Cc1c[nH]cn1)[C@@H](C)O)[C@@H](C)O)C(=O)N[C@@H](CCC(=O)O)C(=O)N[C@@H](CCC(=O)O)C(=O)N[C@@H](CCC(=O)O)C(=O)N[C@@H](C)C(=O)N[C@H](C(=O)N[C@@H](CCCNC(=N)N)C(=O)N[C@@H](CC(C)C)C(=O)N[C@@H](Cc1ccccc1)C(=O)N[C@H](C(=O)N[C@@H](CCC(=O)O)C(=O)N[C@@H](Cc1c[nH]c2ccccc12)C(=O)N[C@@H](CC(C)C)C(=O)N[C@@H](CCCCN)C(=O)N[C@@H](CC(N)=O)C(=O)NCC(=O)N[C@@H](CCCNC(=N)N)C(N)=O)[C@@H](C)CC)C(C)C` [compound 78] (H-HADGTFTSDLSKQ[Nle]EEEAVRLFIEWLKNGR-NH2), in series [1], the “Substrate for DDP-IV” value is “no proteolysis”.
For `CCCC[C@H](NC(=O)[C@H](CCC(N)=O)NC(=O)[C@H](CCCCN)NC(=O)[C@H](CO)NC(=O)[C@H](CC(C)C)NC(=O)[C@H](CC(=O)O)NC(=O)[C@H](CO)NC(=O)[C@@H](NC(=O)[C@H](Cc1ccccc1)NC(=O)[C@@H](NC(=O)CNC(=O)[C@H](CC(=O)O)NC(=O)[C@H](CCCCN)NC(=O)[C@@H](N)Cc1c[nH]cn1)[C@@H](C)O)[C@@H](C)O)C(=O)N[C@@H](CCC(=O)O)C(=O)N[C@@H](CCC(=O)O)C(=O)N[C@@H](CCC(=O)O)C(=O)N[C@@H](C)C(=O)N[C@H](C(=O)N[C@@H](CCCNC(=N)N)C(=O)N[C@@H](CC(C)C)C(=O)N[C@@H](Cc1ccccc1)C(=O)N[C@H](C(=O)N[C@@H](CCC(=O)O)C(=O)N[C@@H](Cc1c[nH]c2ccccc12)C(=O)N[C@@H](CC(C)C)C(=O)N[C@@H](CCCCN)C(=O)N[C@@H](CC(N)=O)C(=O)NCC(=O)N[C@@H](CCCNC(=N)N)C(N)=O)[C@@H](C)CC)C(C)C` [compound 86] (H-HKDGTFTSDLSKQ[Nle]EEEAVRLFIEWLKNGR-NH2), in series [2], the Degradation rate was 2.05 ng peptide/min/mg BBM.
As to “GLP-1-(7-36)-NH2 [GLP1-(7-36)-NH2, reference compound]”, the “Insulin release from isolated islets after 1 hour” value is 53.52 mIU/h/10 Islets with isolated islet cells (peptide 10^−7, 10 mM glucose); 42.78 mIU/h/10 Islets in the series with isolated islet cells (peptide 10^−8, 10 mM glucose); 29.99 mIU/h/10 Islets in the series on isolated islet cells (peptide 10^−9, 10 mM glucose). Also, the “Δ[Ca^2+]cyt ± SD (n = 4)” value in the series with clonal B cell line INS-1 is recorded as 65 ± 10 nM.
In the case of “[Ala^21, Arg^30]-exendin-4-(1-30)-NH2 [Seq. ID 8]”, in the series with clonal B cell line INS-1, the “Δ[Ca^2+]cyt ± SD (n = 4)” value was determined as 64 ± 8 nM.
Take “[H^2 Nle^14R^30]-Ex-3-(1-30)—NH2 (HHDGTFTSDLSKQ[Nle]EEEAVRLFIEWLKNGR-NH2; N-terminus assumed; SMILES CCCC[C@H](NC(=O)[C@H](CCC(N)=O)NC(=O)[C@H](CCCCN)NC(=O)[C@H](CO)NC(=O)[C@H](CC(C)C)NC(=O)[C@H](CC(=O)O)NC(=O)[C@H](CO)NC(=O)[C@@H](NC(=O)[C@H](Cc1ccccc1)NC(=O)[C@@H](NC(=O)CNC(=O)[C@H](CC(=O)O)NC(=O)[C@H](Cc1c[nH]cn1)NC(=O)[C@@H](N)Cc1c[nH]cn1)[C@@H](C)O)[C@@H](C)O)C(=O)N[C@@H](CCC(=O)O)C(=O)N[C@@H](CCC(=O)O)C(=O)N[C@@H](CCC(=O)O)C(=O)N[C@@H](C)C(=O)N[C@H](C(=O)N[C@@H](CCCNC(=N)N)C(=O)N[C@@H](CC(C)C)C(=O)N[C@@H](Cc1ccccc1)C(=O)N[C@H](C(=O)N[C@@H](CCC(=O)O)C(=O)N[C@@H](Cc1c[nH]c2ccccc12)C(=O)N[C@@H](CC(C)C)C(=O)N[C@@H](CCCCN)C(=O)N[C@@H](CC(N)=O)C(=O)NCC(=O)N[C@@H](CCCNC(=N)N)C(N)=O)[C@@H](C)CC)C(C)C) [Seq. ID 84]”: the “Insulin release from isolated islets after 1 hour” value in the series with isolated islet cells (peptide 10^−7, 10 mM glucose) was determined as 48.94 mIU/h/10 Islets; in the series with isolated islet cells (peptide 10^−8, 10 mM glucose), 41.72 mIU/h/10 Islets; with isolated islet cells (peptide 10^−9, 10 mM glucose) it was 38.76 mIU/h/10 Islets; in the series with isolated islet cells (peptide 10^−10, 10 mM glucose), 35.05 mIU/h/10 Islets.
For the molecule “[Nle^14, Arg^30]-exendin-3-(1-30)-NH2 (HSDGTFTSDLSKQ[Nle]EEEAVRLFIEWLKNGR-NH2; N-terminus assumed; SMILES CCCC[C@H](NC(=O)[C@H](CCC(N)=O)NC(=O)[C@H](CCCCN)NC(=O)[C@H](CO)NC(=O)[C@H](CC(C)C)NC(=O)[C@H](CC(=O)O)NC(=O)[C@H](CO)NC(=O)[C@@H](NC(=O)[C@H](Cc1ccccc1)NC(=O)[C@@H](NC(=O)CNC(=O)[C@H](CC(=O)O)NC(=O)[C@H](CO)NC(=O)[C@@H](N)Cc1c[nH]cn1)[C@@H](C)O)[C@@H](C)O)C(=O)N[C@@H](CCC(=O)O)C(=O)N[C@@H](CCC(=O)O)C(=O)N[C@@H](CCC(=O)O)C(=O)N[C@@H](C)C(=O)N[C@H](C(=O)N[C@@H](CCCNC(=N)N)C(=O)N[C@@H](CC(C)C)C(=O)N[C@@H](Cc1ccccc1)C(=O)N[C@H](C(=O)N[C@@H](CCC(=O)O)C(=O)N[C@@H](Cc1c[nH]c2ccccc12)C(=O)N[C@@H](CC(C)C)C(=O)N[C@@H](CCCCN)C(=O)N[C@@H](CC(N)=O)C(=O)NCC(=O)N[C@@H](CCCNC(=N)N)C(N)=O)[C@@H](C)CC)C(C)C) [Seq. ID 5]”, the “Δ[Ca^2+]cyt ± SD (n = 4)” value in the series on clonal B cell line INS-1 is reported as 63 ± 8 nM.
